From patent US10316017B2, “COT modulators and methods of use thereof” (Gilead Sciences, Inc., priority 2015, dated 2019)
pEC50, pIC50: −log10 of the molar value.

Columns and labels:
[1] = target: T1, human Cot catalytic domain (30-397 amino acids) (Homo sapiens, UniProt P41279); assay: High Throughput Cot Biochemical Assay (KinEASE TR-FRET); settings: Cot KinEASE TR-FRET, 400 μM ATP; read-out: IC50 HTRF
T1 construct: Purified recombinant human Cot catalytic domain (30-397 amino acids) was purchased from Cama Biosciences; purchased Cama Biosciences (so in the source)
How it was run: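 Phosphorylation of 1 μM XL665-STK3 peptide by 5 nM Cot catalytic domain was measured by time-resolved FRET using a europium […] antibody. ATP was 400 μM; buffer was 10 mM MOPS pH 7.0 with Mg2+ and DTT.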

[2] = tested on: TNFα production in LPS-stimulated human monocytes; assay: Cot Monocyte TNFα Cell Based Assay; settings: Homo sapiens, Monocyte, LPS-stimulated human monocytes, TNFα TR-FRET; read-out: EC50 TNF
How it was run: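 Percent-of-control values derive from TR-FRET ratios of TNFα in spun-down media, referenced to unstimulated and LPS-stimulated wells. Exposure: 1 h compound preincubation, then 50 pg/ml LPS for 4 h, both at 37 °C, with 0.5% final DMSO.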

T1 sequence (P41279 30-397): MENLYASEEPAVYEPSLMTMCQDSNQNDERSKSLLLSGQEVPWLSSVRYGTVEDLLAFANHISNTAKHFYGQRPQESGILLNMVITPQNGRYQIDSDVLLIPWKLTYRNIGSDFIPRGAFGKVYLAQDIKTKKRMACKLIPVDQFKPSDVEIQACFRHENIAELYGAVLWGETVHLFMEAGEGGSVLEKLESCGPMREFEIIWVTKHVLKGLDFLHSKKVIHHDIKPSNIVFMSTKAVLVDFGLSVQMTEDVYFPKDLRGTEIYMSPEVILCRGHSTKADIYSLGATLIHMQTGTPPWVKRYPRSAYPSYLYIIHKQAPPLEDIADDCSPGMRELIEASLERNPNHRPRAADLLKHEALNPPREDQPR

SMILES	pIC50 [1]	pEC50 [2]
Cc1cc(F)ccc1[C@H](Nc1cc(C#N)c2ncc(C#N)c(NCC(C)(C)C)c2c1)c1cn(C2(C(F)F)CC2)nn1 [Example 1083, (S)-6-(((1-(1-(difluoromethyl)cyclopropyl)-1H-1,2,3-triazol-4-yl)(4-fluoro-2-methylphenyl)methyl)amino)-4-(neopentylamino)quinoline-3,8-dicarbonitrile]	7.89	7.20
CC(C)(C)CNc1c(C#N)cnc2c(Cl)cc(N[C@@H](c3ccc(C#N)cc3)c3cn(C4CC4)nn3)cc12 [Example 1084, (S)-8-chloro-6-(((4-cyanophenyl)(1-cyclopropyl-1H-1,2,3-triazol-4-yl)methyl)amino)-4-(neopentylamino)quinoline-3-carbonitrile]	8.15	7.14
Cc1c(-c2ccncc2)cccc1[C@H](Nc1cc(Cl)c2ncc(C#N)c(NCC(C)(C)C)c2c1)c1cn(C2(C(F)F)CC2)nn1 [Example 1085, (S)-8-chloro-6-(((1-(1-(difluoromethyl)cyclopropyl)-1H-1,2,3-triazol-4-yl)(2-methyl-3-(pyridin-4-yl)phenyl)methyl)amino)-4-(neopentylamino)quinoline-3-carbonitrile]	8.30	6.69
Cc1c(-c2cnn(C)c2)cccc1[C@H](Nc1cc(Cl)c2ncc(C#N)c(NCC(C)(C)C)c2c1)c1cn(C2(C(F)F)CC2)nn1 [Example 1086, (S)-8-chloro-6-(((1-(1-(difluoromethyl)cyclopropyl)-1H-1,2,3-triazol-4-yl)(2-methyl-3-(1-methyl-1H-pyrazol-4-yl)phenyl)methyl)amino)-4-(neopentylamino)quinoline-3-carbonitrile]	8.40	7.12
CCOC(=O)c1cccc([C@H](Nc2cc(Cl)c3ncc(C#N)c(NCC(C)(C)C)c3c2)c2cn(C3(C(F)(F)F)CC3)nn2)c1F [Example 1087, ethyl (S)-3-(((8-chloro-3-cyano-4-(neopentylamino)quinolin-6-yl)amino)(1-(1-(trifluoromethyl)cyclopropyl)-1H-1,2,3-triazol-4-yl)methyl)-2-fluorobenzoate]	7.66	6.43
COC(=O)c1cc([C@H](Nc2cc(Cl)c3ncc(C#N)c(NCC(C)(C)C)c3c2)c2cn(C3(C(F)(F)F)CC3)nn2)ccc1F [Example 1088, methyl (S)-5-(((8-chloro-3-cyano-4-(neopentylamino)quinolin-6-yl)amino)(1-(1-(trifluoromethyl)cyclopropyl)-1H-1,2,3-triazol-4-yl)methyl)-2-fluorobenzoate]	7.66	6.03
Cc1c(C#N)cccc1[C@H](Nc1cc(Cl)c2ncc(C#N)c(NCC(C)(C)C(F)(F)F)c2c1)c1cn(C2(C(F)F)CC2)nn1 [Example 1089, (S)-8-chloro-6-(((3-cyano-2-methylphenyl)(1-(1-(difluoromethyl)cyclopropyl)-1H-1,2,3-triazol-4-yl)methyl)amino)-4-((3,3,3-trifluoro-2,2-dimethylpropyl)amino)quinoline-3-carbonitrile]	8.15	7.64
Cc1c(F)cccc1[C@H](Nc1cc(Cl)c2ncc(C#N)c(NCC(C)(C)C)c2c1)c1cn(C2(C(F)(F)F)CC2)nn1 [Example 1090, (S)-8-chloro-6-(((3-fluoro-2-methylphenyl)(1-(1-(trifluoromethyl)cyclopropyl)-1H-1,2,3-triazol-4-yl)methyl)amino)-4-(neopentylamino)quinoline-3-carbonitrile]	7.12	6.21
CC(C)(C)CNc1c(C#N)cnc2c(Cl)cc(N[C@@H](c3cccc(C4(C#N)CC4)c3)c3cn(C4(C(F)(F)F)CC4)nn3)cc12 [Example 1091, (S)-8-chloro-6-(((3-(1-cyanocyclopropyl)phenyl)(1-(1-(trifluoromethyl)cyclopropyl)-1H-1,2,3-triazol-4-yl)methyl)amino)-4-(neopentylamino)quinoline-3-carbonitrile]	7.55	≤ 6.00
